The record followed here is patent US20070275084A1, “Compositions And Methods For The Treatment Of Skin Damage” (priority 2003, published 2007).

The experiment relates to human skin fibroblasts. Nature of the experiment: Collagen synthesis by human skin fibroblasts (3H-proline incorporation into collagenous protein). The class given is cell-based. Conditions: carnosine alone 60 mM, 48 h (FIG. 1 column 11). The protocol:
After starving for up to 6 hours, cells were exposed to a mixture of BMF and carnosine or the appropriate controls for 48 hours. Tritiated proline (L-[5-^3H] proline) was included in the culture medium and at the end of the experiments, the amount of ^3H proline incorporated into collagenous protein was determined as an index of collagen synthesis. A subset of cultures were treated with […] for the final 6-8 hours of the culture to determine the collagen-specific nature of incorporated radioactivity.
Human diploid ftbroblasts were obtained from neonatal foreskins collected from the Womens' and Chldrens' Hospital (North Adelaide, Australia). […]
Collagen was purified from the culture medium by successive precipitation with salt solutions at acid and neutral pH. […] The amount of radioactivity in the samples was determined using a Stcinillation counter (Wailac) as an index of the amount of new collagen synthesised. The radioactivity in each replicate well was normalised as a percentage of the average radioactivity present in the control wells from each experiment. […]

In the case of `NCCC(=O)N[C@@H](Cc1c[nH]cn1)C(=O)O` [Carnosine, beta-alanyl-L-histidine], the collagen synthesis entry is given as “did not stimulate collagen synthesis”.
